{
  "source": "patent US8536222B2",
  "about": "“Addition compounds of guanidinoacetic acid” (AlzChem AG, priority 2005, dated 2013)",
  "key": {"fattened chicken": {"system": "fattened chicken", "experiment": "feed for fattened chicken, 42 day fattening period", "format": "in vivo", "details": "0.2% by weight in air-dried feed", "description": "• 2.1 A formulation consisting of 5000 mg guanidinoacetic acid malate and 5000 mg inulin was introduced into a typical formulation of feed pellets as a feed supplement for horses. • 2.2 A formulation consisting of 7000 mg guanidinoacetic acid lactate, 750 mg carnitine tartrate, 100 mg sucrose stearate, 160 mg talcum and 1090 mg fructose was introduced into the basic bulk for dog biscuits. • 2.3 The following formulation was introduced homogenously as a master batch into a commercially canned cat food mixture: 3000 mg guanidinoacetic acid citrate, 3000 mg creatine, 40 mg magnesium stearate, 25 mg carboxymethyl-cellulose and […] lactose. • 2.4 Feed for fattened chicken\nIn addition the consumption of feed decreased by about 6% compared to previous feeding methods."}, "[1]": {"system": "creatine content in muscles", "details": "rats, diets containing about 0.36 g/kg; cited from earlier work"}, "[2]": {"details": "1 g in water at 15° C.; cited from earlier work"}, "solubility in water": {"experiment": "solubility in water", "format": "physicochemical", "details": "water at 20° C."}},
  "data": [
    {"smiles": "N=C(N)NCC(=O)O.O=C(O)CCCCC1CCSS1", "note": "(stereo not shown) [guanidinoacetic acid lipoate]", "values": [
      {"measurement": "decrease of consumption of feed compared to previous feeding methods", "setting": "fattened chicken", "result": "about 6%"},
      {"measurement": "increase of end weight compared to previous feeding methods without guanidinoacetic acid", "setting": "fattened chicken", "result": 5, "unit": "%"},
      {"measurement": "meat quality", "setting": "fattened chicken", "result": "improved quality"},
      {"measurement": "nature of the increase in weight", "setting": "fattened chicken", "result": "solely by a meat increase"}
    ]},
    {"smiles": "N=C(N)NCC(=O)O", "note": "[guanidinoacetic acid]", "values": [
      {"measurement": "increase of creatine content in muscles compared to the comparison group", "setting": "[1]", "result": 39, "unit": "%"},
      {"measurement": "solubility in water (ml water needed for 1 g)", "setting": "[2]", "result": 278, "unit": "mL"},
      {"measurement": "dissolves in water", "setting": "solubility in water", "result": "very poorly"}
    ]}
  ]
}
